Experimental data as given in PMC5241706, “Biochemical and Structural Characterization of Selective Allosteric Inhibitors of the Plasmodium falciparum Drug Target, Prolyl-tRNA-synthetase” (ACS Infectious Diseases, 2016).
Values joined by “and” are separate entries in the source; they are usually repeats but may differ in a detail not shown here. Equal values may be shown once. Values belong to the compound of their own block, whether it stands above or below them.

What was measured:
[1] = tested on: Plasmodium falciparum strain 3D7; assay: Plasmodium falciparum growth inhibition, SYBR green fluorescence; format: cell-based; settings: 3D7, growth inhibition, read-out: Pf (3D7) EC50
[2] = target: T1, PfProRS (Plasmodium falciparum, UniProt Q8I5R7); assay: biochemical; format: biochemical; settings: for PfProRS activity in words: SAR text to Table 1; for IC50: read-out: Pf ProRS IC50
T1 construct: B2, AA7–746 (minus 6 amino acids, or 99% of the ORF); made in house; host or cells: E. coli BL21(DE3)R3 Rosetta Oxford

[3] = target: T1, PfProRS; assay: aminoacylation assay ([3H]-L-proline incorporation into tRNA); format: biochemical
[4] = target: T1, PfProRS; assay: ATP consumption assay with proline or ATP varied (competition); format: biochemical; settings: from IC50 vs [ATP] fit
[5] = tested on: isolated 3D7 trophozoites (pHi); assay: pH assay, BCECF-loaded isolated trophozoites; settings: TCMDC-124506 5 μM; KAE609 50 nM
[6] = target: T2, HsProRS (Homo sapiens, UniProt P07814); assay: luciferase ATP depletion assay, counter-screen; format: biochemical
T2 construct: made in house
T2 sequence (P07814 1007-1512 limits assumed): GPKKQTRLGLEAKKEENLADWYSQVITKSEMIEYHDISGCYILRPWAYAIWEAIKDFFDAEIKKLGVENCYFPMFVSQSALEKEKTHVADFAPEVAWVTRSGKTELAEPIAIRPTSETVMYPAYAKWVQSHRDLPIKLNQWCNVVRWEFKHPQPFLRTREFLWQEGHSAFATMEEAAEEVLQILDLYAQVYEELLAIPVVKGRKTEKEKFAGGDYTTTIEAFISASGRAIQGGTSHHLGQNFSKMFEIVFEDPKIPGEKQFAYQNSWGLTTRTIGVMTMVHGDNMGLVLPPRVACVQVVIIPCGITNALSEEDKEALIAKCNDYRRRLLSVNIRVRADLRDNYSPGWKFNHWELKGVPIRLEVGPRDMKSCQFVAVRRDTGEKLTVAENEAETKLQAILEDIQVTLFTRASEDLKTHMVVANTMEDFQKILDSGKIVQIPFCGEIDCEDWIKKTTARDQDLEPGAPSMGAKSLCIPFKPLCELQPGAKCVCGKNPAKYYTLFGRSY

[7] = target: T1, PfProRS; format: binding
[8] = target: T1, PfProRS; assay: luciferase ATP depletion assay, HTS format; format: biochemical
[9] = read-out: Percentage inhibition Pf ProRS

T1 sequence (Q8I5R7 7-746): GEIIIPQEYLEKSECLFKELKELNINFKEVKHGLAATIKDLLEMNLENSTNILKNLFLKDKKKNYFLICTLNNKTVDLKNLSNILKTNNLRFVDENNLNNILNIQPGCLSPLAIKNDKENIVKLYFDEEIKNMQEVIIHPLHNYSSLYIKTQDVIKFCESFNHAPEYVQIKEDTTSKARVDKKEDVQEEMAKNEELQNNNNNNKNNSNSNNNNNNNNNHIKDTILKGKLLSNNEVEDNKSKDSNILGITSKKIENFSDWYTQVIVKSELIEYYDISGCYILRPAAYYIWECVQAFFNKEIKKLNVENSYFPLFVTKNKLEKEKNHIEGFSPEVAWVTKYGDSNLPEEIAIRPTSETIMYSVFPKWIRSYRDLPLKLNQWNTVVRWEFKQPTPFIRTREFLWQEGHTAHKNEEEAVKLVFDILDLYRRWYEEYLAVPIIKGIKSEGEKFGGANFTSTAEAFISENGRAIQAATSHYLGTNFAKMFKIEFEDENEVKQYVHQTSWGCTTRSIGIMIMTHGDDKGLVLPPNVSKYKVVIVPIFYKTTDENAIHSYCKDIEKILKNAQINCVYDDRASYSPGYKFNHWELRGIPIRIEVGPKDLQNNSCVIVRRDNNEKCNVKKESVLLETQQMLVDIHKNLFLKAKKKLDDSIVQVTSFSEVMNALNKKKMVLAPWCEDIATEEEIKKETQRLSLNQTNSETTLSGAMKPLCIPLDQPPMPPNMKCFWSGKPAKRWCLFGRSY

Compound: Cn1nc(C(F)(F)F)c(-c2cccc(CNS(C)(=O)=O)c2)c1NC(=O)Nc1ccc(F)cc1 [Compound 16]
EC50 [1]: 10 µM
PfProRS activity in words [2]: inactive
IC50 [2]: > 50 µM

Compound: Cn1nc(C(F)(F)F)c(-c2ccccc2CO)c1NC(=O)Nc1ccc(F)cc1 [Compound 13]
EC50 [1]: 8 µM
drop in PfProRS potency versus hit compound [2]: 4 fold
IC50 [2]: 20 µM

Compound: Cn1nc(C(N)=O)c(-c2ccc(F)cc2)c1NC(=O)Nc1ccc(F)cc1 [Compound 20]
EC50 [1]: > 50 µM
IC50 [2]: 14 µM

Compound: CC(C)(C)OC(=O)N1CCC[C@@H](O)[C@@H]1CC(=O)Cn1cnc2cc(Br)c(Cl)cc2c1=O [N-Boc-halofuginone]
IC50 ([3]; Hill slope = 1, Figure S2, read-out: IC50, [3H]-L-proline aminoacylation incorporation assay): > 3 µM
inhibition of aminoacylation ([3]; at the highest concentrations tested): < 20%

Compound: Cn1nc(C(F)(F)F)cc1NC(=O)Nc1ccc(F)cc1 [Compound 10, 1-(4-fluorophenyl)-3-(1-methyl-3-(trifluoromethyl)-1H-pyrazol-5-yl)urea]
EC50 [1]: 46 µM
PfProRS activity in words [2]: inactive
IC50 [2]: > 50 µM

Compound: Cn1nc(CCC#N)c(-c2ccc(F)cc2)c1NC(=O)Nc1ccc(F)cc1 [Compound 24]
EC50 [1]: 6 µM
IC50 [2]: 9 µM

Compound: Cn1nc(C(F)(F)F)c(-c2ccc(F)cc2)c1NC(=O)Nc1ccc(F)cc1F [Compound 3]
EC50 [1]: 0.7 µM
IC50 [2]: 2.5 µM

Compound: CN(C)CCc1nn(C)c(NC(=O)Nc2ccc(F)cc2)c1-c1ccc(F)cc1 [Compound 25]
EC50 [1]: > 50 µM
IC50 [2]: 4 µM

Compound: Cn1nc(CCC(N)=O)c(-c2ccc(F)cc2)c1NC(=O)Nc1ccc(F)cc1 [Compound 21]
EC50 [1]: > 50 µM
IC50 [2]: 8 µM

Compound: Nc1ncnc2c1ncn2[C@@H]1O[C@H](COP(=O)(O)OP(=O)(O)OP(=O)(O)O)[C@@H](O)[C@H]1O [ATP]
Km [4]: 6.51 ± 1.84 µM

Compound: C[C@H]1Cc2c([nH]c3cc(Cl)c(F)cc23)[C@@]2(N1)C(=O)Nc1ccc(Cl)cc12 [KAE609, reference compound]
effect on parasite cytosolic pH (pHi) [5]: caused an increase in pHi

Compound: NC(=O)Cn1nc(C(F)(F)F)c(-c2ccc(F)cc2)c1NC(=O)Nc1ccc(F)cc1 [Compound 9]
EC50 [1]: > 50 µM
IC50 [2]: > 50 µM

Compound: Cn1nc(C(F)(F)F)c(-c2cccc(C(F)(F)F)c2)c1NC(=O)Nc1ccc(F)cc1 [Compound 17]
EC50 [1]: 0.9 µM
IC50 [2]: > 50 µM

Compound: O=C(CC1NCCCC1O)Cn1cnc2cc(Br)c(Cl)cc2c1=O (stereo not drawn) [halofuginone]
IC50 [3]: 0.011 µM
IC50 ([6]; 75 nM ProRS, 60 μM proline, 6 μM ATP, 400 μg/mL yeast tRNA, 2 h 37 °C): 2 µM and 2.13 µM
fold difference between PfProRS and HsProRS IC50 ([6]; HsProRS vs PfProRS): ≤ 8 fold
inhibition at 0.02 µM ([6]; at 0.02 μM, read-out: Percentage inhibition Hs ProRS): 0.15%
inhibition at 0.05 µM ([6]; at 0.05 μM, read-out: Percentage inhibition Hs ProRS): -0.14%
inhibition at 0.1 µM ([6]; at 0.10 μM, read-out: Percentage inhibition Hs ProRS): 0.21%
inhibition at 0.2 µM ([6]; at 0.20 μM, read-out: Percentage inhibition Hs ProRS): 1.95%
inhibition at 0.39 µM ([6]; at 0.39 μM, read-out: Percentage inhibition Hs ProRS): 9.43%
inhibition at 0.78 µM ([6]; at 0.78 μM, read-out: Percentage inhibition Hs ProRS): 24.7%
inhibition at 1.56 µM ([6]; at 1.56 μM, read-out: Percentage inhibition Hs ProRS): 46.5%
inhibition at 3.13 µM ([6]; at 3.13 μM, read-out: Percentage inhibition Hs ProRS): 64.1%
inhibition at 6.25 µM ([6]; at 6.25 μM, read-out: Percentage inhibition Hs ProRS): 74.3%
inhibition at 12.5 µM ([6]; at 12.50 μM, read-out: Percentage inhibition Hs ProRS): 85.7%
inhibition at 25 µM ([6]; at 25.00 μM, read-out: Percentage inhibition Hs ProRS): 89.2%
change in thermal stability ([7]; full-length recombinant protein B1): no increase in stability
shift in stability (thermal melt) ([7]; recombinant protein B2): 6 °
IC50 ([8]; PfProRS IC50, 75 nM ProRS, 60 μM proline, 6 μM ATP, 400 μg/mL yeast tRNA, 2 h 37 °C): 0.28 µM
IC50 ([8]; PfProRS IC50, luciferase ATP depletion assay): 0.275 µM
inhibition at 0.02 µM [8, 9]: -0.05%
inhibition at 0.05 µM [8, 9]: 2.49%
inhibition at 0.1 µM [8, 9]: 10.8%
inhibition at 0.2 µM [8, 9]: 34.4%
inhibition at 0.39 µM [8, 9]: 69%
inhibition at 0.78 µM [8, 9]: 90%
inhibition at 1.56 µM [8, 9]: 98.9%
inhibition at 3.13 µM [8, 9]: 99.1%
inhibition at 6.25 µM [8, 9]: 95%
inhibition at 12.5 µM [8, 9]: 93.6%
inhibition at 25 µM [8, 9]: 93.9%

More lines, main results first:

PfProRS activity in words [2]: inactive
IC50 [2]: > 50 µM
Compound: Cn1nc(C(F)(F)F)c(Br)c1NC(=O)Nc1ccc(F)cc1 [Compound 11, 1-[4-bromo-2-methyl-5-(trifluoromethyl)pyrazol-3-yl]-3-(4-fluorophenyl)urea]
EC50 [1]: 16 µM

IC50 [2]: > 50 µM
Compound: Cn1nc(C(F)(F)F)c(-c2ccc(F)cc2)c1NC(=O)Nc1ccnc(N2CCOCC2)c1 [Compound 6]
EC50 [1]: > 50 µM

IC50 [2]: 8 µM
Compound: Cn1nc(C(F)(F)F)c(-c2ccc(F)cc2)c1NC(=O)Nc1cccc(F)c1 [Compound 4]
EC50 [1]: 0.35 µM

PfProRS activity in words [2]: inactive
IC50 [2]: > 50 µM
Compound: O=C(Nc1ccc(F)cc1)Nc1[nH]nc(C(F)(F)F)c1-c1ccc(F)cc1 [Compound 7]
EC50 [1]: > 50 µM

IC50 [2]: 3 µM
Compound: Cn1nc(CCN2CCOCC2)c(-c2ccc(F)cc2)c1NC(=O)Nc1ccc(F)cc1 [Compound 26]
EC50 [1]: 10 µM

IC50 [2]: 13 µM
Compound: Cn1nc(C(F)(F)F)c(-c2cccc(CCO)c2)c1NC(=O)Nc1ccc(F)cc1 [Compound 15]
EC50 [1]: 4 µM

IC50 [2]: 18 µM
Compound: Cn1nc(CCO)c(-c2ccc(F)cc2)c1NC(=O)Nc1ccc(F)cc1 [Compound 19]
EC50 [1]: 20 µM

IC50 [2]: > 50 µM
Compound: COc1ccc(NC(=O)Nc2c(-c3ccc(F)cc3)c(C(F)(F)F)nn2C)cc1 [Compound 5]
EC50 [1]: > 50 µM

IC50 [2]: 5 µM
Compound: Cn1nc(C#N)c(-c2ccc(F)cc2)c1NC(=O)Nc1ccc(F)cc1 [Compound 22]
EC50 [1]: 0.6 µM

IC50 [2]: > 50 µM
Compound: O=C(Nc1ccc(F)cc1)Nc1c(-c2ccc(F)cc2)c(C(F)(F)F)nn1CCO [Compound 8]
EC50 [1]: > 50 µM
